Measurements reported in ChEMBL document CHEMBL5244251, “Recent researches for dual Aurora target inhibitors in antitumor field” (Eur J Med Chem, 2020).

What was measured:
[1] = Inhibition of Xenopus laevis Aurora kinase B
[2] = target: T1, Aurora kinase C (Homo sapiens, UniProt Q9UQB9); assay: Inhibition of human Aurora C
T1 sequence (Q9UQB9 whole entry): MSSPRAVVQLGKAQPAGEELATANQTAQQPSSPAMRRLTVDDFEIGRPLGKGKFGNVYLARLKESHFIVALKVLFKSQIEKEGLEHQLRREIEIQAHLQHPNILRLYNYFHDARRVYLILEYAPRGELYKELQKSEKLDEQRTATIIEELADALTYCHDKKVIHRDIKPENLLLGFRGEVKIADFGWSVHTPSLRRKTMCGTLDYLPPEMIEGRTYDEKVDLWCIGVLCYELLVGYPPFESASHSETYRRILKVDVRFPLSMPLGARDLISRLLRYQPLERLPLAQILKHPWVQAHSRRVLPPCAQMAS

[3] = Antitumor activity against human Fuji cells xenografted in mouse assessed as reduction in tumor weight; format: functional; set-up: scale not given: the % may be the effect or the level left
[4] = Antitumor activity against human Fuji cells xenografted in mouse assessed as reduction in tumor volume; format: functional; set-up: scale not given: the % may be the effect or the level left
[5] = tested on: A-375; assay: Antitumor activity against human A-375 cells xenografted in mouse assessed as tumor growth inhibition; format: functional

## CCNC(=O)C#Cc1ccc2c(c1)NC(=O)/C2=C(\Nc1ccc(CN(C)C)cc1)c1ccccc1
[1]
  IC50: 3 nM
[2]
  IC50: 15 nM

## CN(C)S(=O)(=O)c1ccc2c(c1)/C(=C/c1cc3c([nH]1)CCCC3)C(=O)N2
[3]
  Activity: 13%
[4]
  Activity: 16%

## Nc1nc(Nc2ccc(S(N)(=O)=O)cc2)nn1C(=O)c1c(F)cccc1F [JNJ-7706621]
[5]
  TGI: 95%
